Measured values reported in the supplement of paper PMC8882468.

Test system: HCI-019 (organoid from a triple-negative breast cancer xenograft)
Test: CTG-3D luminescence at 96 h relative to day-0 seeding control (ratio to day 0); higher = more growth / less cytotoxicity; PDxO 3D drug screen, 96 h, CTG-3D normalised to day-0 seeding control.
Conditions: 0.00025 µM; days in culture: 110

SMILES | CTG-3D luminescence at 96 h
COc1cccc2c1C(=O)c1c(O)c3c(c(O)c1C2=O)C[C@@](O)(C(=O)CO)C[C@@H]3O[C@H]1C[C@H](N)[C@H](O)[C@H](C)O1 [doxorubicin] | 1.56
O=C(O)C1(C(=O)O)CCC1.[NH2-].[NH2-].[Pt+2] [carboplatin] | 1.76
NC(=O)Nc1cc(-c2cccc(F)c2)sc1C(=O)N[C@H]1CCCNC1 [AZD7762] | 1.62
Nc1ccn([C@@H]2O[C@H](CO)[C@@H](O)C2(F)F)c(=O)n1 [gemcitabine] | 1.3
CC1(C)CCC(c2ccc(Cl)cc2)=C(CN2CCN(c3ccc(C(=O)NS(=O)(=O)c4ccc(N[C@H](CCN5CCOCC5)CSc5ccccc5)c(S(=O)(=O)C(F)(F)F)c4)cc3)CC2)C1 [navitoclax] | 1.8
CN(Cc1cnc2nc(N)nc(N)c2n1)c1ccc(C(=O)N[C@@H](CCC(=O)O)C(=O)O)cc1 [methotrexate] | 1.69
C=CCn1c(=O)c2cnc(Nc3ccc(N4CCN(C)CC4)cc3)nc2n1-c1cccc(C(C)(C)O)n1 [adavosertib] | 1.58
CC(C)(C(=O)NCC(F)(F)C(F)(F)F)C(=O)N[C@@H]1C(=O)Nc2ccccc2-c2ccccc21 | 1.52
C[C@@H]1COCCN1c1cc(C2([S@](C)(=N)=O)CC2)nc(-c2cc[nH]c3nccc2-3)n1 [ceralasertib] | 1.2
CCN1CCN(Cc2ccc(Nc3ncc(F)c(-c4cc(F)c5nc(C)n(C(C)C)c5c4)n3)nc2)CC1 [abemaciclib] | 1.44

Same assay, conditions: 0.00025 µM; days in culture: 131

SMILES | CTG-3D luminescence at 96 h
COc1cccc2c1C(=O)c1c(O)c3c(c(O)c1C2=O)C[C@@](O)(C(=O)CO)C[C@@H]3O[C@H]1C[C@H](N)[C@H](O)[C@H](C)O1 [doxorubicin] | 3.8
O=C(O)C1(C(=O)O)CCC1.[NH2-].[NH2-].[Pt+2] [carboplatin] | 3.56
NC(=O)Nc1cc(-c2cccc(F)c2)sc1C(=O)N[C@H]1CCCNC1 [AZD7762] | 4.24
Nc1ccn([C@@H]2O[C@H](CO)[C@@H](O)C2(F)F)c(=O)n1 [gemcitabine] | 3.53
CC1(C)CCC(c2ccc(Cl)cc2)=C(CN2CCN(c3ccc(C(=O)NS(=O)(=O)c4ccc(N[C@H](CCN5CCOCC5)CSc5ccccc5)c(S(=O)(=O)C(F)(F)F)c4)cc3)CC2)C1 [navitoclax] | 3.6
CN(Cc1cnc2nc(N)nc(N)c2n1)c1ccc(C(=O)N[C@@H](CCC(=O)O)C(=O)O)cc1 [methotrexate] | 3.21
C=CCn1c(=O)c2cnc(Nc3ccc(N4CCN(C)CC4)cc3)nc2n1-c1cccc(C(C)(C)O)n1 [adavosertib] | 3.93
CC(C)(C(=O)NCC(F)(F)C(F)(F)F)C(=O)N[C@@H]1C(=O)Nc2ccccc2-c2ccccc21 | 3.17
C[C@@H]1COCCN1c1cc(C2([S@](C)(=N)=O)CC2)nc(-c2cc[nH]c3nccc2-3)n1 [ceralasertib] | 3.35
CCN1CCN(Cc2ccc(Nc3ncc(F)c(-c4cc(F)c5nc(C)n(C(C)C)c5c4)n3)nc2)CC1 [abemaciclib] | 3.28

Same assay, conditions: 0.00025 µM; days in culture: 152

SMILES | CTG-3D luminescence at 96 h
COc1cccc2c1C(=O)c1c(O)c3c(c(O)c1C2=O)C[C@@](O)(C(=O)CO)C[C@@H]3O[C@H]1C[C@H](N)[C@H](O)[C@H](C)O1 [doxorubicin] | 3.12
O=C(O)C1(C(=O)O)CCC1.[NH2-].[NH2-].[Pt+2] [carboplatin] | 2.48
NC(=O)Nc1cc(-c2cccc(F)c2)sc1C(=O)N[C@H]1CCCNC1 [AZD7762] | 2.74
Nc1ccn([C@@H]2O[C@H](CO)[C@@H](O)C2(F)F)c(=O)n1 [gemcitabine] | 4.1
CC1(C)CCC(c2ccc(Cl)cc2)=C(CN2CCN(c3ccc(C(=O)NS(=O)(=O)c4ccc(N[C@H](CCN5CCOCC5)CSc5ccccc5)c(S(=O)(=O)C(F)(F)F)c4)cc3)CC2)C1 [navitoclax] | 2.49
CN(Cc1cnc2nc(N)nc(N)c2n1)c1ccc(C(=O)N[C@@H](CCC(=O)O)C(=O)O)cc1 [methotrexate] | 2.23
C=CCn1c(=O)c2cnc(Nc3ccc(N4CCN(C)CC4)cc3)nc2n1-c1cccc(C(C)(C)O)n1 [adavosertib] | 2.43
CC(C)(C(=O)NCC(F)(F)C(F)(F)F)C(=O)N[C@@H]1C(=O)Nc2ccccc2-c2ccccc21 | 2.87
C[C@@H]1COCCN1c1cc(C2([S@](C)(=N)=O)CC2)nc(-c2cc[nH]c3nccc2-3)n1 [ceralasertib] | 2.77
CCN1CCN(Cc2ccc(Nc3ncc(F)c(-c4cc(F)c5nc(C)n(C(C)C)c5c4)n3)nc2)CC1 [abemaciclib] | 2.78

Same assay, conditions: 0.005 µM; days in culture: 110

SMILES | CTG-3D luminescence at 96 h
COc1cccc2c1C(=O)c1c(O)c3c(c(O)c1C2=O)C[C@@](O)(C(=O)CO)C[C@@H]3O[C@H]1C[C@H](N)[C@H](O)[C@H](C)O1 [doxorubicin] | 1.49
O=C(O)C1(C(=O)O)CCC1.[NH2-].[NH2-].[Pt+2] [carboplatin] | 1.53
NC(=O)Nc1cc(-c2cccc(F)c2)sc1C(=O)N[C@H]1CCCNC1 [AZD7762] | 1.33
Nc1ccn([C@@H]2O[C@H](CO)[C@@H](O)C2(F)F)c(=O)n1 [gemcitabine] | 0.347
CC1(C)CCC(c2ccc(Cl)cc2)=C(CN2CCN(c3ccc(C(=O)NS(=O)(=O)c4ccc(N[C@H](CCN5CCOCC5)CSc5ccccc5)c(S(=O)(=O)C(F)(F)F)c4)cc3)CC2)C1 [navitoclax] | 1.56
CN(Cc1cnc2nc(N)nc(N)c2n1)c1ccc(C(=O)N[C@@H](CCC(=O)O)C(=O)O)cc1 [methotrexate] | 1.69
C=CCn1c(=O)c2cnc(Nc3ccc(N4CCN(C)CC4)cc3)nc2n1-c1cccc(C(C)(C)O)n1 [adavosertib] | 1.23
CC(C)(C(=O)NCC(F)(F)C(F)(F)F)C(=O)N[C@@H]1C(=O)Nc2ccccc2-c2ccccc21 | 1.54
C[C@@H]1COCCN1c1cc(C2([S@](C)(=N)=O)CC2)nc(-c2cc[nH]c3nccc2-3)n1 [ceralasertib] | 1.15
CCN1CCN(Cc2ccc(Nc3ncc(F)c(-c4cc(F)c5nc(C)n(C(C)C)c5c4)n3)nc2)CC1 [abemaciclib] | 1.96

Same assay, conditions: 0.005 µM; days in culture: 131

SMILES | CTG-3D luminescence at 96 h
COc1cccc2c1C(=O)c1c(O)c3c(c(O)c1C2=O)C[C@@](O)(C(=O)CO)C[C@@H]3O[C@H]1C[C@H](N)[C@H](O)[C@H](C)O1 [doxorubicin] | 2.31
O=C(O)C1(C(=O)O)CCC1.[NH2-].[NH2-].[Pt+2] [carboplatin] | 2.77
NC(=O)Nc1cc(-c2cccc(F)c2)sc1C(=O)N[C@H]1CCCNC1 [AZD7762] | 2.81
Nc1ccn([C@@H]2O[C@H](CO)[C@@H](O)C2(F)F)c(=O)n1 [gemcitabine] | 0.976
CC1(C)CCC(c2ccc(Cl)cc2)=C(CN2CCN(c3ccc(C(=O)NS(=O)(=O)c4ccc(N[C@H](CCN5CCOCC5)CSc5ccccc5)c(S(=O)(=O)C(F)(F)F)c4)cc3)CC2)C1 [navitoclax] | 3.23
CN(Cc1cnc2nc(N)nc(N)c2n1)c1ccc(C(=O)N[C@@H](CCC(=O)O)C(=O)O)cc1 [methotrexate] | 2.83
C=CCn1c(=O)c2cnc(Nc3ccc(N4CCN(C)CC4)cc3)nc2n1-c1cccc(C(C)(C)O)n1 [adavosertib] | 2.52
CC(C)(C(=O)NCC(F)(F)C(F)(F)F)C(=O)N[C@@H]1C(=O)Nc2ccccc2-c2ccccc21 | 3.05
C[C@@H]1COCCN1c1cc(C2([S@](C)(=N)=O)CC2)nc(-c2cc[nH]c3nccc2-3)n1 [ceralasertib] | 3.06
CCN1CCN(Cc2ccc(Nc3ncc(F)c(-c4cc(F)c5nc(C)n(C(C)C)c5c4)n3)nc2)CC1 [abemaciclib] | 2.99

Same assay, conditions: 0.005 µM; days in culture: 152

SMILES | CTG-3D luminescence at 96 h
COc1cccc2c1C(=O)c1c(O)c3c(c(O)c1C2=O)C[C@@](O)(C(=O)CO)C[C@@H]3O[C@H]1C[C@H](N)[C@H](O)[C@H](C)O1 [doxorubicin] | 2.32
O=C(O)C1(C(=O)O)CCC1.[NH2-].[NH2-].[Pt+2] [carboplatin] | 2.23
NC(=O)Nc1cc(-c2cccc(F)c2)sc1C(=O)N[C@H]1CCCNC1 [AZD7762] | 2.11
Nc1ccn([C@@H]2O[C@H](CO)[C@@H](O)C2(F)F)c(=O)n1 [gemcitabine] | 0.623
CC1(C)CCC(c2ccc(Cl)cc2)=C(CN2CCN(c3ccc(C(=O)NS(=O)(=O)c4ccc(N[C@H](CCN5CCOCC5)CSc5ccccc5)c(S(=O)(=O)C(F)(F)F)c4)cc3)CC2)C1 [navitoclax] | 3.21
CN(Cc1cnc2nc(N)nc(N)c2n1)c1ccc(C(=O)N[C@@H](CCC(=O)O)C(=O)O)cc1 [methotrexate] | 2.89
C=CCn1c(=O)c2cnc(Nc3ccc(N4CCN(C)CC4)cc3)nc2n1-c1cccc(C(C)(C)O)n1 [adavosertib] | 3.28
CC(C)(C(=O)NCC(F)(F)C(F)(F)F)C(=O)N[C@@H]1C(=O)Nc2ccccc2-c2ccccc21 | 3.36
C[C@@H]1COCCN1c1cc(C2([S@](C)(=N)=O)CC2)nc(-c2cc[nH]c3nccc2-3)n1 [ceralasertib] | 2.34
CCN1CCN(Cc2ccc(Nc3ncc(F)c(-c4cc(F)c5nc(C)n(C(C)C)c5c4)n3)nc2)CC1 [abemaciclib] | 2.45

Same assay, conditions: 0.1 µM; days in culture: 110

SMILES | CTG-3D luminescence at 96 h
COc1cccc2c1C(=O)c1c(O)c3c(c(O)c1C2=O)C[C@@](O)(C(=O)CO)C[C@@H]3O[C@H]1C[C@H](N)[C@H](O)[C@H](C)O1 [doxorubicin] | 1.03
O=C(O)C1(C(=O)O)CCC1.[NH2-].[NH2-].[Pt+2] [carboplatin] | 2.63
NC(=O)Nc1cc(-c2cccc(F)c2)sc1C(=O)N[C@H]1CCCNC1 [AZD7762] | 1.06
Nc1ccn([C@@H]2O[C@H](CO)[C@@H](O)C2(F)F)c(=O)n1 [gemcitabine] | 0.296
CC1(C)CCC(c2ccc(Cl)cc2)=C(CN2CCN(c3ccc(C(=O)NS(=O)(=O)c4ccc(N[C@H](CCN5CCOCC5)CSc5ccccc5)c(S(=O)(=O)C(F)(F)F)c4)cc3)CC2)C1 [navitoclax] | 1.84
CN(Cc1cnc2nc(N)nc(N)c2n1)c1ccc(C(=O)N[C@@H](CCC(=O)O)C(=O)O)cc1 [methotrexate] | 1.92
C=CCn1c(=O)c2cnc(Nc3ccc(N4CCN(C)CC4)cc3)nc2n1-c1cccc(C(C)(C)O)n1 [adavosertib] | 1.52
CC(C)(C(=O)NCC(F)(F)C(F)(F)F)C(=O)N[C@@H]1C(=O)Nc2ccccc2-c2ccccc21 | 2.23
C[C@@H]1COCCN1c1cc(C2([S@](C)(=N)=O)CC2)nc(-c2cc[nH]c3nccc2-3)n1 [ceralasertib] | 2
CCN1CCN(Cc2ccc(Nc3ncc(F)c(-c4cc(F)c5nc(C)n(C(C)C)c5c4)n3)nc2)CC1 [abemaciclib] | 2.43

Same assay, conditions: 0.1 µM; days in culture: 131

SMILES | CTG-3D luminescence at 96 h
COc1cccc2c1C(=O)c1c(O)c3c(c(O)c1C2=O)C[C@@](O)(C(=O)CO)C[C@@H]3O[C@H]1C[C@H](N)[C@H](O)[C@H](C)O1 [doxorubicin] | 1.47
O=C(O)C1(C(=O)O)CCC1.[NH2-].[NH2-].[Pt+2] [carboplatin] | 2.39
NC(=O)Nc1cc(-c2cccc(F)c2)sc1C(=O)N[C@H]1CCCNC1 [AZD7762] | 2.99
Nc1ccn([C@@H]2O[C@H](CO)[C@@H](O)C2(F)F)c(=O)n1 [gemcitabine] | 0.427
CC1(C)CCC(c2ccc(Cl)cc2)=C(CN2CCN(c3ccc(C(=O)NS(=O)(=O)c4ccc(N[C@H](CCN5CCOCC5)CSc5ccccc5)c(S(=O)(=O)C(F)(F)F)c4)cc3)CC2)C1 [navitoclax] | 2.91
